Data from patent US11078194B2, “Salt form and crystal form serving as FGFR and VEGFR inhibitor compounds, and preparation method therefor” (HARBIN ZHENBAO PHARMACEUTICAL CO., LTD., priority 2017, dated 2021).
Read-outs that look alike come from different tables or passages of the source. Values belong to the compound of their own block, whether it stands above or below them.

How the values were obtained:
[1] = Solubility test of compounds of formula (I)-(IV) in 4 vehicles (water, SGF, FaSSIF, FeSSIF), HPLC; assay type: physicochemical; details: for Solubility (μg/mL)_4 hours / solubility at 4 h: 4 hours stirring; for Solubility (μg/mL)_24 hours / solubility at 24 h: 24 hours stirring; for solubility at 24 h / solubility at 4 h: thermodynamic from solid; for solubility at 24 h: read-out: Solubility (μg/mL)_24 hours; for solubility at 4 h: read-out: Solubility (μg/mL)_4 hours
Experimental: About 5 mg of the compound of formula (I) was weighed accurately, and placed in a sample bottle. 10 mL of acetonitrile was added. The mixture was sonicated for 5 minutes, cooled to room temperature, and well mixed. Two control sample solutions were prepared in parallel, and labeled as STD-1 and STD-2, respectively.
The control sample solution STD-1 was serially diluted 1, 5, 10, 100 and 1000 times and labeled as linear solutions L1, L2, L3, L4 and L5.
The solubility of the compound of formula (I) and its salt in 4 vehicles with different pH were tested. About 10 mg of the compounds of formula (I)-(IV) were weighed respectively, then 5.0 mL of different vehicles (water, SGF, FaSSIF, FeSSIF) were added thereto, respectively, and well mixed to obtain suspensions. Magnetic stir bars were added into the suspensions, and the suspensions were placed on a magnetic stirrer for stirring. After stirring for 2 hours, 4 hours, and 24 hours, the samples were collected and centrifuged. The residual solid samples in the lower layer were detected by XRPD. The concentrations of the samples in the upper layer were determined by HPLC, and the pH value of the samples were also detected.
(§1) FaSSIF: (1) 0.042 g of sodium hydroxide, 0.3438 g of sodium dihydrogen phosphate and 0.6186 g of sodium chloride were weighed, and 90 mL of purified water was added and well mixed. The pH value of the obtained solution were adjusted to 6.5 with 1 N hydrochloric acid or 1 N sodium hydroxide, and the solution were diluted with purified water to a final volume of 100 mL. (2) 50 mL of the above buffer solution was taken, followed by addition of 0.224 g of commercially available FaSSIF/FeSSIF/FaSSGF powder (Biorelevant.com). The buffer solution was stirred until dissolved, and diluted with purified water to a final volume of 100 mL. The buffer solution was placed at room temperature.
as §1, with “FeSSIF:” for “FaSSIF:”, “0.404” for “0.042”, “0.865” for “0.3438”, “glacial acetic acid, 1.1874” for “sodium dihydrogen phosphate and 0.6186”, “5.0” for “6.5”, “1.12” for “0.224”
FaSSGF (SGF): (1) 0.2 g of sodium chloride was added to 90 mL of purified water and mixed well. The pH value thereof was adjusted to 1.8 with 1 N hydrochloric acid and the solution diluted with purified water to a final volume of 100 mL. The obtained solution was allowed to stand at room temperature.

[2] = Solid stability test of crystal form G, crystal form I and crystal form J (HPLC content, total impurities, XRPD, appearance); assay type: physicochemical
Experimental: About 10 mg of crystal form G, crystal form I, or crystal form J were weighed accurately, and placed on the bottom of a 40 mL glass sample bottle and spread into a thin layer. For an open sample, the bottle mouth thereof was sealed with aluminum foil poked with pinholes to ensure that the sample can fully contact with the ambient air. For a sealed sample, the bottle mouth thereof was sealed with a bottle cap, and wrapped with a sealing film. Two duplicate samples were weighed at each time point of each condition in parallel, and an appropriate amount of sample (not weighed) was taken additionally for XRPD detection. The prepared samples were placed under each condition and were sampled and analyzed when the time point was arrived. On 0th day, 5 control samples were weighed in parallel and stored in a refrigerator at −20° C. until analysis. The samples subjected to light irradiation were prepared by the same method, and placed on the bottom of a 40 mL glass sample bottle. The glass bottle was left open and placed in the upright position in a light irradiation box. In addition, two samples in an appropriate amount were taken as samples in dark, and the glass bottles containing the same were left open, put in the upright position, and wrapped with tin foil, and irradiated with a total luminance of 1.2×10^6Lux.hr and a near ultraviolet power of 200 w.hr/m^2. After irradiation, the samples was stored in the refrigerator at −20° C. for analysis.
The compounds were placed under the following conditions and sampled at different time points to detect the physical properties, and the content and total impurities were analyzed by HPLC.

[3] = pH of sample in FaSSIF (vehicle pH 6.62)
[4] = pH of sample in FeSSIF (vehicle pH 4.59)
[5] = pH of sample in H2O (vehicle pH 8.23)
[6] = pH of sample in SGF (vehicle pH 1.57)
[7] = water, pH 8.23, water, vehicle H2O
[8] = Accelerated test (40° C./relative humidity 75%, open), 1st month
[9] = Accelerated test (40° C./relative humidity 75%, open), 2nd month
[10] = Accelerated test (40° C./relative humidity 75%, open), 3rd month
[11] = Accelerated test (40° C./relative humidity 75%, open), 10th day
[12] = Accelerated test (60° C./relative humidity 75%, open), 1st month
[13] = Accelerated test (60° C./relative humidity 75%, open), 2nd month
[14] = Accelerated test (60° C./relative humidity 75%, open), 3rd month
[15] = Accelerated test (60° C./relative humidity 75%, open), 10th day
[16] = High humidity (Room temperature/relative humidity 92.5%, open), 5th day
[17] = High humidity (Room temperature/relative humidity 92.5%, open), 10th day
[18] = High temperature (60° C., open), 5th day
[19] = High temperature (60° C., open), 10th day
[20] = Light irradiation (1.2 × 10^6 Lux·hr, near ultraviolet 200 w·hr/m^2, open), irradiated sample
[21] = Light irradiation test, Dark sample
[22] = FaSSIF, pH 6.5, fassif, vehicle FaSSIF
[23] = FeSSIF, pH 5, fessif, vehicle FeSSIF
[24] = SGF (FaSSGF), pH 1.8, simulated gastric fluid, vehicle SGF

Compound: C[C@@H](Oc1ccc2[nH]nc(/C=C(\F)c3ccc(CNC4CCOCC4)nc3)c2c1)c1c(Cl)cncc1Cl [compound of formula (II)]
pH (4 hours) [1, 3]: 6.25
pH (24 hours) [1, 3]: 6.22
pH (4 hours) [1, 4]: 4.90
pH (24 hours) [1, 4]: 4.91
pH (4 hours) [1, 5]: 2.68
pH (24 hours) [1, 5]: 2.68
pH (4 hours) [1, 6]: 1.86
pH (24 hours) [1, 6]: 1.86
Solubility (μg/mL)_4 hours ([1]; vehicle FaSSIF): 949.7 µg/mL
Solubility (μg/mL)_24 hours ([1]; vehicle FaSSIF): 281.6 µg/mL
Solubility (μg/mL)_4 hours ([1]; vehicle FeSSIF): 2010.0 µg/mL
Solubility (μg/mL)_24 hours ([1]; vehicle FeSSIF): 1831.5 µg/mL
Solubility (μg/mL)_4 hours ([1]; vehicle H2O): 1576.9 µg/mL
Solubility (μg/mL)_4 hours ([1]; vehicle SGF): 106.3 µg/mL
Solubility (μg/mL)_24 hours ([1]; vehicle SGF): 45.4 µg/mL
solubility at 24 h [1, 7]: 1540 µg/mL
solubility in the aqueous phase / water ([1]; water, conclusion in words, listed as hydrochloride): highest solubility

Compound: C[C@@H](Oc1ccc2[nH]nc(/C=C(\F)c3ccc(CNC4CCOCC4)nc3)c2c1)c1c(Cl)cncc1Cl.O=C(O)CC(O)(CC(=O)O)C(=O)O [compound of formula (III)]
solubility at 4 h [1, 22]: 910 µg/mL
solubility at 24 h [1, 22]: 942 µg/mL
solubility at 4 h [1, 23]: 2370 µg/mL
solubility at 24 h [1, 23]: 2230 µg/mL
solubility at 4 h [1, 24]: 2420 µg/mL
solubility at 24 h [1, 24]: 16.8 µg/mL
pH (4 hours) [1, 3]: 6.43
pH (24 hours) [1, 3]: 6.33
pH (4 hours) [1, 4]: 4.96
pH (24 hours) [1, 4]: 4.97
pH (4 hours) [1, 5]: 5.60
pH (24 hours) [1, 5]: 5.47
pH (4 hours) [1, 6]: 2.09
pH (24 hours) [1, 6]: 2.08
solubility at 4 h [1, 7]: 99.5 µg/mL
solubility at 24 h [1, 7]: 184 µg/mL

Further lines, results first:

Appearance ([2]; 0th day): Earth yellow
Content (%) ([2]; 0th day): 100%
Crystal form (XRPD) ([2]; 0th day): form G
Total impurities (%) ([2]; 0th day): 0.11%
Appearance [2, 8]: Earth yellow
Content (%) [2, 8]: 102.45%
Crystal form (XRPD) [2, 8]: form G
Total impurities (%) [2, 8]: 0.16%
Appearance [2, 9]: Earth yellow
Content (%) [2, 9]: 101.07%
Crystal form (XRPD) [2, 9]: form G
Total impurities (%) [2, 9]: 0.17%
Appearance [2, 10]: Earth yellow
Content (%) [2, 10]: 98.81%
Crystal form (XRPD) [2, 10]: form G
Total impurities (%) [2, 10]: 0.18%
Appearance [2, 11]: Earth yellow
Content (%) [2, 11]: 99.97%
Crystal form (XRPD) [2, 11]: form G
Total impurities (%) [2, 11]: 0.11%
Appearance [2, 12]: Earth yellow
Content (%) [2, 12]: 101.51%
Crystal form (XRPD) [2, 12]: form G
Total impurities (%) [2, 12]: 0.17%
Appearance [2, 13]: Earth yellow
Content (%) [2, 13]: 99.86%
Crystal form (XRPD) [2, 13]: form G
Total impurities (%) [2, 13]: 0.18%
Appearance [2, 14]: Earth yellow
Content (%) [2, 14]: 100.21%
Crystal form (XRPD) [2, 14]: form G
Total impurities (%) [2, 14]: 0.19%
Appearance [2, 15]: Earth yellow
Content (%) [2, 15]: 98.38%
Crystal form (XRPD) [2, 15]: form G
Total impurities (%) [2, 15]: 0.15%
Appearance [2, 16]: Earth yellow
Content (%) [2, 16]: 100.82%
Crystal form (XRPD) [2, 16]: form G
Total impurities (%) [2, 16]: 0.11%
Appearance [2, 17]: Earth yellow
Content (%) [2, 17]: 98.79%
Crystal form (XRPD) [2, 17]: form G
Total impurities (%) [2, 17]: 0.11%
Appearance [2, 18]: Earth yellow
Content (%) [2, 18]: 102.02%
Crystal form (XRPD) [2, 18]: form G
Total impurities (%) [2, 18]: 0.16%
Appearance [2, 19]: Earth yellow
Content (%) [2, 19]: 100.14%
Crystal form (XRPD) [2, 19]: form G
Total impurities (%) [2, 19]: 0.16%
Appearance [2, 20]: Earth yellow
Content (%) [2, 20]: 102.93%
Crystal form (XRPD) [2, 20]: form G
Total impurities (%) [2, 20]: 0.37%
Appearance [2, 21]: Earth yellow
Content (%) [2, 21]: 101.69%
Crystal form (XRPD) [2, 21]: form G
Total impurities (%) [2, 21]: 0.11%
thermal stability and stability under accelerated conditions ([2]; conclusion of influencing factors and accelerated tests): excellent
stability under dark conditions ([2]; dark): good stability
impurities generated under light irradiation conditions ([2]; light irradiation): slight impurities
Compound: C[C@@H](Oc1ccc2[nH]nc(/C=C(\F)c3ccc(CNC4CCOCC4)nc3)c2c1)c1c(Cl)cncc1Cl [crystal form G]

solubility at 4 h [1, 22]: 1130 µg/mL
solubility at 24 h [1, 22]: 824 µg/mL
solubility at 4 h [1, 23]: 2410 µg/mL
solubility at 24 h [1, 23]: 2280 µg/mL
solubility at 4 h [1, 24]: 2470 µg/mL
solubility at 24 h [1, 24]: 43.3 µg/mL
pH (4 hours) [1, 3]: 6.26
pH (24 hours) [1, 3]: 6.27
pH (4 hours) [1, 4]: 4.95
pH (24 hours) [1, 4]: 4.95
pH (4 hours) [1, 5]: 6.93
pH (24 hours) [1, 5]: 6.46
pH (4 hours) [1, 6]: 2.09
pH (24 hours) [1, 6]: 2.09
solubility at 4 h [1, 7]: 7.4 µg/mL
solubility at 24 h [1, 7]: 19.3 µg/mL
Compound: C[C@@H](Oc1ccc2[nH]nc(/C=C(\F)c3ccc(CNC4CCOCC4)nc3)c2c1)c1c(Cl)cncc1Cl.O=C(O)C[C@H](O)C(=O)O [compound of formula (IV)]

solubility at 4 h [1, 22]: 781 µg/mL
solubility at 4 h [1, 23]: 1950 µg/mL
solubility at 24 h [1, 23]: 1730 µg/mL
solubility in the three biological vehicle ([1]; SGF, FaSSIF, FeSSIF, conclusion in words): good solubility
pH (4 hours) [1, 3]: 6.58
pH (24 hours) [1, 3]: 6.57
pH (4 hours) [1, 4]: 5.01
pH (24 hours) [1, 4]: 5.01
pH (4 hours) [1, 5]: 8.33
pH (24 hours) [1, 5]: 7.97
pH (4 hours) [1, 6]: 2.10
pH (24 hours) [1, 6]: 2.06
Solubility (μg/mL)_24 hours ([1]; vehicle FaSSIF): 611.3 µg/mL
Solubility (μg/mL)_4 hours ([1]; vehicle H2O): 5.8 µg/mL
Solubility (μg/mL)_24 hours ([1]; vehicle H2O): <LOQ
Solubility (μg/mL)_4 hours ([1]; vehicle SGF): 1971.3 µg/mL
Solubility (μg/mL)_24 hours ([1]; vehicle SGF): 1825.6 µg/mL
solubility in the aqueous phase / water ([1]; water, conclusion in words, listed as free base): extremely difficult to dissolve
Compound: C[C@@H](Oc1ccc2[nH]nc(/C=C(\F)c3ccc(CNC4CCOCC4)nc3)c2c1)c1c(Cl)cncc1Cl [compound of formula (I)]
